Source: patent US12156909B2, “Reverse peptide vaccine” (Emergex Vaccines Holding Limited, priority 2018, dated 2024)

Legend:
[1] = test system: HLA-A2; assay: HLA binding of NEG8 peptides shared with other flu proteins (Table 5), A2; conditions: score printed after 'A2:'; no method or unit given
Description: (§1) was used to search datasets of T cell epitopes derived from influenza virus infected cells. The NEG8 peptides described in Examples 1 and 2 were also identified using this search. The purpose of performing the search was to establish whether any NEG8 peptides or sequences within the polypeptide encoded by the NEG8 ORF are shared with any other influenza A virus proteins. Table 5 sets out T cell epitopes derived from influenza A virus proteins other than NEG8 that are also comprised in one or more of the NEG8 peptides identified in Examples 1 and 2 or the polypeptide encoded by the NEG8 ORF. From this, numerous NEG8 peptides considered to bind to MHC in cells infected with influenza A virus can be identified based on confidence level, XCorr, and performance of fragment mass spectra.

[2] = test system: HLA-A24; assay: HLA binding of NEG8 peptides shared with other flu proteins (Table 5), A24; conditions: no method or unit given
Description: as §1

[3] = test system: HLA-B7; assay: HLA binding of NEG8 peptides shared with other flu proteins (Table 5), B7; conditions: score printed after 'B7:'; no method or unit given
Description: as §1

[4] = test system: MHC class I; type: cell-based

| Sequence | HLA binding A2 [1] | HLA binding A24 [2] | HLA binding B7 [3] | found in influenza A virus-infected cells [4] |
| --- | --- | --- | --- | --- |
| AFNMMFLSM | A2:10 | A24:7 |  |  |
| AFSVMFLSM |  | A24:7 |  |  |
| AILSLQTFD (Influenza A virus) |  | A24:2 |  |  |
| ALSSIRVSS (Influenza A virus) | A2:16 |  | B7:7 |  |
| FLICVSPLQL (Influenza A virus) | A2:24 | A24:13 |  |  |
| IAPSSVKALS (Influenza A virus) |  |  |  | truly found in influenza A virus-infected cells |
| KITLKFAFNMM (Influenza A virus) |  |  |  | truly found in influenza A virus-infected cells |
| LFLICVSLL (Influenza A virus) | A2:18 | A24:21 |  |  |
| LMQRGPSTF (Influenza A virus) |  |  |  | truly found in influenza A virus-infected cells |
| SPLQLAILSL (Influenza A virus) |  |  | B7:22 |  |
